Here are results for four molecules from article PMC6287396, “Hyperactivation of Oncogenic JAK3 Mutants Depend on ATP Binding to the Pseudokinase Domain” (Frontiers in Oncology, 2018).

The target of test [1] is T1, JAK3 JH2 (Homo sapiens, UniProt P52333).
T1 construct: JAK3 JH2 (residues 511–790) was cloned into the pFASTBAC1 vector (Invitrogen) with a C-terminal His6 tag; His6 (C); made in house; host or cells: Spodoptera frugiperda (Sf9) insect cells, baculovirus (pFASTBAC1)
T1 sequence (P52333 511-790): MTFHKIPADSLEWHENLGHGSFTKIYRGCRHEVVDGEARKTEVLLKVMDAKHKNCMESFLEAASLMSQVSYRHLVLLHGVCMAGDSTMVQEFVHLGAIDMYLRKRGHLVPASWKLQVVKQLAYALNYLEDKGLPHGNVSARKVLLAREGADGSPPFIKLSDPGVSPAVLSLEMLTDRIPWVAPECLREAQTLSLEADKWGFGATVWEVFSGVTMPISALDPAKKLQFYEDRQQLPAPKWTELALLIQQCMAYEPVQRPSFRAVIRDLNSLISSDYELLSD
Description: Differential scanning fluorimetry (thermal shift). The class given is binding. To be noted: for Effect of nucleotide on Tm (ΔTm): JAK3 JH2, nucleotide titration 0.2, 0.5, 1 mM. As for the experimental part: (§1) Protein concentration of 3 μM was used for the measurement of the melting temperature (Tm). Reactions were done in the buffer used in the SEC. Addition of other components (ATP, salts) were taken into account by including 2X buffer, if needed. Signal arising from the fluorescent dye Life Technologies SYPRO^TM Orange Protein Gel Stain, 4X working solution from 5000X concentrate in DMSO) was measured with a conventional Real-Time PCR system (Bio-Rad CFX), 1°C per min from 4 to 96°C. Results were transferred and normalized in Microsoft Excel and the Tm was derived from the sigmoidal function using GraphPad Prism version 5.02 for Windows, GraphPad Software, La Jolla California USA, https://www.graphpad.com/.
Background: Differential scanning fluorimetry follows unfolding on heating by fluorescence.

The target in test [2] is T1, JAK3 JH2. Put plainly: MANT-ATP binding assay (steady-state FRET). The procedure: The steady-state fluorescence of MANT-labeled ATP was measured as described in Mysore et al. ([34]). Briefly, the fluorescently labeled MANT (2′/3′-(N-methyl-anthraniloyl)-ATP was titrated against 1.5 μM recombinant JAK3 JH2. In addition, the protein was titrated as 0, 0.05, 0.25, 1.25, and […] against 0.25 μM MANT-ATP. FRET signal was measured with QuantaMaster PTI Fluorometer and the data was analyzed using GraphPad Prism version 5.02 and Microsoft Excel. Protein titrations were done in duplicate and in MANT-ATP titration in triplicate.

The target in test [3] is T2, TYK2 JH2.
T2 construct: TYK2 JH2 564-876-His proteins; His (C)
More on the design: method as in PMID 26359499. To be noted: TYK2 JH2, with MgCl2; read-out: Kd (MANT-ATP); cited from earlier work.

For test [4], the target named is T3, JAK2 JH2.
T3 construct: JAK2 JH2 503-827-His; His (C)
Also on record: method as in PMID 25825724. To be noted: JAK2 JH2, with MgCl2; read-out: Kd (MANT-ATP); cited from earlier work.

For test [5], the target named is T4, JAK1 JH2.
T4 construct: Recombinant JAK1 JH2 553-836-His; His (C)
More on the design: method as in PMID 25825724. To be noted: JAK1 JH2, with MgCl2; read-out: Kd (MANT-ATP); cited from earlier work.

The next test deals with T5, JAK1 JH2 553-836-His (Homo sapiens, UniProt P23458).
T5 construct: Recombinant JAK1 JH2 553-836-His; His (C)
Description: Fluorescence polarization competition assay (ATP vs Bodipy FL JNJ-7706621 tracer). It counts as binding. To be noted: JAK1 JH2, ATP competing with tracer, with MgCl2. The procedure: (§2) Fluorescence polarization measurements were performed in black 384-well plates (ProxiPlate-384 F Plus, PerkinElmer) at sample volume of 5 μl/well on PerkinElmer Envision plate reader using 480 nm excitation and 535 nm emission filters. Fluorescent tracer, Bodipy FL labeled JNJ-7706621 [compound 5 in ([35])] was used at 1.5 nM concentration. Recombinant JAK1 JH2 553-836-His, JAK2 JH2 503-827-His, JAK3 JH2 511-790-His, and TYK2 JH2 564-876-His proteins were used at concentrations (2 nM JAK1, 150 nM JAK2, 1 μM JAK3, 20 nM TYK2) dependent on protein-tracer dissociation constants. The assays were performed in a buffer consisting of 20 mM Tris-HCl pH 8.0, 150 mM NaCl, 20% glycerol, 0.01% Brij-35, and 2 mM DTT. ATP was titrated at concentration range of 5 nM−5 μM and fluorescence polarization values obtained were fitted against log[ATP] in GraphPad Prism to yield IC50 values. Assays were performed in triplicate.
A general note: Polarisation of emitted light reports the rotation of a fluorescent probe.

In a further test the target is T6, JAK3 JH2 511-790-His (Homo sapiens, UniProt P52333).
T6 construct: JAK3 JH2 (residues 511–790) was cloned into the pFASTBAC1 vector (Invitrogen) with a C-terminal His6 tag; His6 (C); made in house; host or cells: Spodoptera frugiperda (Sf9) insect cells, baculovirus (pFASTBAC1)
T6 sequence (P52333 511-790): T1 sequence (P52333 511-790)
The description is as above. The class given is binding. The note with it: JAK3 JH2, ATP competing with tracer, no MgCl2 added. As for the experimental part:
as §2

For another test, the target named is T7, TYK2 JH2 564-876-His (Homo sapiens, UniProt P29597).
T7 construct: TYK2 JH2 564-876-His proteins; His (C)
The description is as above. It counts as binding. The note with it: TYK2 JH2, ATP competing with tracer, with MgCl2. As for the experimental part:
as §2

A further test concerns the target T8, JAK2 JH2 503-827-His (Homo sapiens, UniProt O60674).
T8 construct: JAK2 JH2 503-827-His; His (C)
The test is described as above. It counts as binding. The note with it: JAK2 JH2, ATP competing with tracer, with MgCl2. As for the experimental part:
as §2

Test [6] concerns T4, JAK1 JH2. Description: Differential scanning fluorimetry (thermal shift). It counts as binding. The note with it: JAK1 JH2, 1 mM ATP. The procedure: as §1
In test [7] the test system is T2, TYK2 JH2. Put plainly: Differential scanning fluorimetry (thermal shift). The class given is binding. The procedure: as §1
Test [8] has as its system T3, JAK2 JH2. Description: Differential scanning fluorimetry (thermal shift). It counts as binding. As for the experimental part:
as §1

T5 sequence (P23458 553-836): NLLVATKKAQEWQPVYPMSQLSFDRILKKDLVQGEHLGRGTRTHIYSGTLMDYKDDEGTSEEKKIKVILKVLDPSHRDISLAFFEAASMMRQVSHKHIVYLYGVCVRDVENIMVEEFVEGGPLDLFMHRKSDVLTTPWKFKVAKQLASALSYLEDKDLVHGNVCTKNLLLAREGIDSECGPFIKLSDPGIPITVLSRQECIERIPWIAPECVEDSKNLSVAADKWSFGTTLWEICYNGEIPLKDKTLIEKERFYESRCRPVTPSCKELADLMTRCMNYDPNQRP
T7 sequence (P29597 564-876): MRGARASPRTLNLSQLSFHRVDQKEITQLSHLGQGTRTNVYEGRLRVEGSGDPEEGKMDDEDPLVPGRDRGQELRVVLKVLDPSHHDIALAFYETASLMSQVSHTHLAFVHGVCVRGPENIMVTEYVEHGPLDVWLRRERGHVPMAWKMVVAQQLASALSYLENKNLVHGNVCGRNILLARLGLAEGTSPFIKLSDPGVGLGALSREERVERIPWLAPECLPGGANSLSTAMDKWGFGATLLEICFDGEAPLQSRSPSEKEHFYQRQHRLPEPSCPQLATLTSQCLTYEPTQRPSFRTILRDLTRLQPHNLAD
T8 sequence (O60674 503-827): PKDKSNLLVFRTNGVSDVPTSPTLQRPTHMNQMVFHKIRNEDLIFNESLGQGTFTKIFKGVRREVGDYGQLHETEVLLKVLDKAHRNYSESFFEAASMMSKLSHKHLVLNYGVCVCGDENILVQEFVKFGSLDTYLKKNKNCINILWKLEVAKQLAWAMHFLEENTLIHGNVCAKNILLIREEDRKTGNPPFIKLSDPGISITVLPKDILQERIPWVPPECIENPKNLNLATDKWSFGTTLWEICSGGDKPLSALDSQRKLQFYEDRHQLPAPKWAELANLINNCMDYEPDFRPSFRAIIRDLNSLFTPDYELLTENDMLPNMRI

For `Nc1ncnc2c1ncn2[C@@H]1O[C@H](COP(=O)(O)OP(=O)(O)O)[C@@H](O)[C@H]1O` [ADP], the “Effect of nucleotide on Tm (ΔTm)” value on JAK3 JH2 [1] is “significantly reduced ΔTm compared to ATP”.
Take “2′/3′-(N-methyl-anthraniloyl)-ATP [MANT-ATP]”: at JAK3 JH2 [2] (JAK3 JH2 vs JAK1 JH2), the “fold tighter MANT-ATP binding of JAK3 JH2 compared to JAK1 JH2” value is 6 fold. The “fold tighter MANT-ATP binding of JAK3 JH2 compared to JAK2 JH2” value on JAK3 JH2 [2] (JAK3 JH2 vs JAK2 JH2) stood at 3 fold. Besides, the “fold tighter MANT-ATP binding of JAK3 JH2 compared to TYK2 JH2” value at JAK3 JH2 [2] (JAK3 JH2 vs TYK2 JH2) came to 30 fold. The Kd on TYK2 JH2 [3] was 15 µM; on JAK2 JH2 [4], 1.3 µM; on JAK1 JH2 [5], 3.1 µM.
On to `Nc1ncnc2c1ncn2[C@@H]1O[C@H](COP(=O)(O)O)[C@@H](O)[C@H]1O` [AMP], for which the “Effect of nucleotide on Tm (ΔTm)” value at JAK3 JH2 [1] is recorded as “no effect on Tm”.
In the case of `Nc1ncnc2c1ncn2[C@@H]1O[C@H](COP(=O)(O)OP(=O)(O)OP(=O)(O)O)[C@@H](O)[C@H]1O` [ATP], the 50% inhibitory concentration (IC50) at JAK1 JH2 553-836-His amounted to 110 µM; on JAK3 JH2 511-790-His, 16 µM; on TYK2 JH2 564-876-His, 471 µM; on JAK2 JH2 503-827-His, 102 µM. For the same molecule, the “ΔTm (1 mM ATP)” value in the test on JAK1 JH2 [6] was 3.9 °C; in the test on TYK2 JH2 [7] (TYK2 JH2, 1 mM ATP), 0.9 °C; with JAK2 JH2 [8] (JAK2 JH2, 1 mM ATP) it was 4.9 °C. Also, the TmATP in the test with TYK2 JH2 [7] (melting temperature of TYK2 JH2 with ATP) came out at 48 °C; on JAK3 JH2 [1] (melting temperature of JAK3 JH2 with ATP) it was 41 °C; in the test on JAK2 JH2 [8] (melting temperature of JAK2 JH2 with ATP) it was 46 °C. Moreover, at JAK3 JH2 [1] (50 nM−1 mM ATP titrated to 3 μM JAK3 JH2, read-out: Kd approximated with DSF), the Kd is 40.4 ± 97.1 µM. Also, on JAK3 JH2 [1] (JAK3 JH2, 0.2 mM ATP), the shift in melting temperature (ΔTm) is 8 °C.

For orientation: Kd means the constant that tells how readily two partners part at equilibrium. In general, IC50 refers to the point on the concentration scale where inhibition reaches its midpoint. In general, ΔTm refers to the shift of the melting midpoint relative to a reference.
